Experimental data from US10858348B2, “Salt forms of 4-cyano-N-(4,4-dimethylcyclohex-1-en-1-yl)-6-(2,2,6,6-Tetr amethyltetrahydro-2H-pyran-4-yl)pyridin-3-yl)-1H-imidazole-2-carboximide” (Janssen Pharmaceutica NV, priority 2016, dated 2020).
In brackets after ≈: the same amount, converted by molar mass.

Test: physchem
Format: physicochemical
Conditions: organic solvent or mixture

CC1(C)CC=C(c2nc(C3CC(C)(C)OC(C)(C)C3)ccc2NC(=O)c2nc(C#N)c[nH]2)CC1 [Compound A, 4-cyano-N-[2-(4,4-dimethylcyclohex-1-en-1-yl)-6-(2,2,6,6-tetramethyltetrahydro-2H-pyran-4-yl)pyridin-3-yl]-1H-imidazole-2-carboxamide]
solubility: ~130 mg/mL (≈ 282 mM)
